From patent publication US20250304560A1, “MODULATORS OF NLRP3 INFLAMMASOME AND RELATED PRODUCTS AND METHODS” (Neumora Therapeutics, Inc., priority 2022, published 2025) come the findings set out here.

In assay [1] the test system is IL-6. In words: IL-6 AlphaLISA in LPS-primed THP1 macrophages. Conditions: Homo sapiens. On the technique in general: Alpha assays give light when donor and acceptor beads are brought close together.
For assay [2], the target named is NLRP3 inflammasome (Homo sapiens, UniProt Q96P20). In words: NLRP3 inflammasome activation in THP1 macrophages, IL-1β AlphaLISA.
Setting [3] is: THP-1, read-out: IL-6 Activity (μM), THP1 macrophages, PMA, LPS priming, nigericin 6.7 uM.
Setting [4] is: IL-1β Activity (nM), THP1 macrophages, PMA, LPS priming, nigericin 6.7 uM activation.
[5] abbreviates: THP-1, read-out: IL-6 Activity (μM).

Read-outs that look alike come from different tables or passages of the source.

NLRP3 inflammasome, sequence (Q96P20 whole entry): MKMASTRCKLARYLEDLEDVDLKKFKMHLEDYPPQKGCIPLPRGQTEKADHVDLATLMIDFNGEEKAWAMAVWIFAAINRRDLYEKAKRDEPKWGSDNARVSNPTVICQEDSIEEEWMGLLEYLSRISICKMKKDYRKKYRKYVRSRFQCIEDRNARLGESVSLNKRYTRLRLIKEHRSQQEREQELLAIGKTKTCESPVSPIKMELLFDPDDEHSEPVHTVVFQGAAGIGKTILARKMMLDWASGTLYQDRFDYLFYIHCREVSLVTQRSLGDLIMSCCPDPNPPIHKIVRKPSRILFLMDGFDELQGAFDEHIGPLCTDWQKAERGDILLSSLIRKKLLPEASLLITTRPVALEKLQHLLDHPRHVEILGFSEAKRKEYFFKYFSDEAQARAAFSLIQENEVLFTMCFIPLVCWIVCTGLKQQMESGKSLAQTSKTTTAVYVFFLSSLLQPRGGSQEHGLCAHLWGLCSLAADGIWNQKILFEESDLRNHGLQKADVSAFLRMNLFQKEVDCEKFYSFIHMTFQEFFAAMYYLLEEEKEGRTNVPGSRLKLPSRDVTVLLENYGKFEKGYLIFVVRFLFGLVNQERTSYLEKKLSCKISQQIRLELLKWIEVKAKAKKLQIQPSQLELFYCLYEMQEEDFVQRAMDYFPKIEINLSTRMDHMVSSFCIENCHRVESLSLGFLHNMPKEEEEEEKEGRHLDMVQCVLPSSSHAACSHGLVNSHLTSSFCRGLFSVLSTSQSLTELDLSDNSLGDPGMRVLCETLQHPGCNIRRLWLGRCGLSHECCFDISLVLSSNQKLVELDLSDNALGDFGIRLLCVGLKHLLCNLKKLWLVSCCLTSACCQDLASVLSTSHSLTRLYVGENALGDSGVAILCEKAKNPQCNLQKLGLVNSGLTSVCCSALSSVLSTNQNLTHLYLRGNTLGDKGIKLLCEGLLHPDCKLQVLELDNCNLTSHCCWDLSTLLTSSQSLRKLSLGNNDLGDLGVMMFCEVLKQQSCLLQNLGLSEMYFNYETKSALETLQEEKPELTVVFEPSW

With `Cc1ccc(O)c(-c2ccc(N[C@@H]3CCCN(C)C3)nn2)c1` [compound 4], the figures for the IC50 in assay [1] (setting [3]) and in assay [2] (setting [4]) were over 10 µM and 100 to 500 nM, respectively.

With `Cc1cccc(-c2ccc(N[C@@H]3CCCN(C)C3)nn2)c1O` [compound 5], the IC50 in assay [1] (setting [3]) is over 10 µM; in assay [2] (setting [4]), 1 to 10 nM.

As to `Cc1cc(F)cc(O)c1-c1ccc(N[C@@H]2CCCN(C)C2)nn1` [compound 6], the figures for the IC50 in assay [1] (setting [3]) and in assay [2] (setting [4]) were 5 to 10 µM and under 1 nM, respectively.

Turning to `Cc1cc(-c2ccccc2O)nnc1N[C@@H]1CCCN(C)C1` [compound 8], the IC50 in assay [1] (setting [3]) was over 10 µM; in assay [2] (setting [4]), 1 to 10 nM.

Regarding `Cc1cc(-c2ccc(N[C@@H]3CCCN(C)C3)nn2)c(O)cc1F` [compound 9], the IC50 in assay [1] (setting [3]) was over 10 µM; in assay [2] (setting [4]), 100 to 500 nM.

As to `Cc1c(F)ccc(-c2ccc(N[C@@H]3CCCN(C)C3)nn2)c1O` [compound 10], the IC50 is 5 to 10 µM in assay [1] (setting [3]) and 10 to 100 nM in assay [2] (setting [4]).

In the case of `CCc1cc(C)c(-c2ccc(N[C@@H]3CCCN(C)C3)nn2)c(O)c1` [compound 12], the IC50 was over 10 µM in assay [1] (setting [3]) and under 1 nM in assay [2] (setting [4]).

For the compound `Cc1cc(C2CC2)cc(O)c1-c1ccc(N[C@@H]2CCCN(C)C2)nn1` [compound 13], the results for the IC50 in assay [1] (setting [5]) and in assay [2] were over 10 µM and 1 to 10 nM, respectively.

On to `CCc1ccc(-c2ccc(N[C@@H]3CCCN(C)C3)nn2)c(O)c1` [compound 14], for which the IC50 in assay [1] (setting [3]) is over 10 µM; in assay [2] (setting [4]) it was 10 to 100 nM.

For `CCc1ccc(-c2cc(C)c(N[C@@H]3CCCN(C)C3)nn2)c(O)c1` [compound 16], the IC50 in assay [2] (setting [4]) lay within 1 to 10 nM.

As to `CN1CCC[C@@H](N(C)c2ccc(-c3ccccc3O)nn2)C1` [compound 17], the IC50 in assay [1] (setting [3]) was over 10 µM; in assay [2] (setting [4]), over 1000 nM.

For the compound `Cc1cccc(-c2ccc(N(C)[C@@H]3CCCN(C)C3)nn2)c1O` [compound 18], the results for the IC50 in assay [1] (setting [3]) and in assay [2] (setting [4]) were 5 to 10 µM and over 1000 nM, respectively.

On to `Cc1ccc(O)c(-c2ccc(N(C)[C@@H]3CCCN(C)C3)nn2)c1` [compound 19], for which the IC50 in assay [1] (setting [3]) was 5 to 10 µM; in assay [2] (setting [4]), over 1000 nM.

Consider `CN1CCC[C@@H](N(C)c2ccc(-c3ccc(F)cc3O)nn2)C1` [compound 20], for which the IC50 in assay [1] (setting [3]) is 5 to 10 µM; in assay [2] (setting [4]), over 1000 nM.

As to `Cc1cc(N(C)[C@@H]2CCCN(C)C2)nnc1-c1ccccc1O` [compound 23], the IC50 was over 10 µM in assay [1] (setting [3]) and 10 to 100 nM in assay [2] (setting [4]).

Regarding `Cc1c(F)ccc(-c2ccc(N(C)[C@@H]3CCCN(C)C3)nn2)c1O` [compound 24], the IC50 in assay [1] (setting [3]) was 1 to 5 µM; in assay [2] (setting [4]), 10 to 100 nM.

On to `Cc1cc(-c2ccc(N(C)[C@@H]3CCCN(C)C3)nn2)c(O)cc1F` [compound 25], for which the IC50 in assay [1] (setting [3]) was 1 to 5 µM; in assay [2] (setting [4]) it was over 1000 nM.

Regarding `Cc1cc(N(C)[C@@H]2CCCN(C)C2)nnc1-c1ccc(F)cc1O` [compound 26], the IC50 is over 10 µM in assay [1] (setting [3]) and 1 to 10 nM in assay [2] (setting [4]).

In the case of `CCc1ccc(-c2ccc(N(C)[C@@H]3CCCN(C)C3)nn2)c(O)c1` [compound 27], the IC50 was over 10 µM in assay [1] (setting [3]) and 10 to 100 nM in assay [2] (setting [4]).

For the compound `Cc1cc(N(C)[C@@H]2CCCN(C)C2)nnc1-c1ccc(C2CC2)cc1O` [compound 28], the IC50 in assay [1] (setting [5]) is under 1 µM; in assay [2] it was under 1 nM.

For `CN1CC[C@@H](Nc2ccc(-c3ccc(F)cc3O)nn2)C1` [compound 30], the IC50 is over 10 µM in assay [1] (setting [3]) and over 1000 nM in assay [2] (setting [4]).

`Cc1cc(N[C@@H]2C[C@@H](F)CN(C)C2)nnc1-c1ccccc1O` [compound 41] gave an IC50 in assay [2] (setting [4]) of 10 to 100 nM.

Consider `Cc1cc(-c2ccc(C(F)(F)F)cc2O)nnc1N[C@@H]1CCCN(C)C1` [compound 74], for which, in assay [1] (setting [3]), the IC50 is over 10 µM.

Turning to `Cc1cc(C(F)(F)F)cc(O)c1-c1ccc(N[C@@H]2CCCN(C)C2)nn1` [compound 75], in assay [1] (setting [5]), the IC50 was over 10 µM.

Regarding `Cc1cc(-c2ccc(Cl)cc2O)nnc1N[C@@H]1CCCN(C)C1` [compound 83], the IC50 in assay [2] (setting [4]) was in the range of 1 to 10 nM.

In assay [2], `Cc1cc(NC[C@H]2COCCO2)nnc1-c1ccccc1O` [compound 119] had an IC50 of over 1000 nM.
